Reference: patent publication US20120196854A1, “PHARMACEUTICAL COMPOSITION COMPRISING AROMATIC HETEROCYCLIC COMPOUND” (Kyowa Hakko Kirin Co., Ltd., priority 2009, published 2012)

target: T1, human H-PGDS (Homo sapiens, UniProt O60760); assay: H-PGDS inhibitory activity (Prostaglandin D Synthase Inhibitor Screening Assay Kit); type: biochemical; details: at a concentration of 1 μmol/L; read-out: H-PGDS inhibitory rate
T1 construct: purchased Cayman Chemical 10006593
Experimental: The H-PGDS inhibitory activity of Compound (I) was calculated according to the following protocol attached to Prostaglandin D Synthase Inhibitor Screening Assay Kit (Cat. No. 10006595, Cayman Chemical, Ann Arbor, Mich., USA).
(§1) First, to a 96-well round-bottom plate (Cat. No. 3882-096, Asahi Techno Glass, Chiba), 60 μL/well of an enzyme assay buffer (0.1 mol/L Tris-HCl, pH 8.0), 10 μL/well of a human H-PGDS [Cat. No. 10006593 (human), Cayman Chemical, Ann Arbor, Mich., USA] at a final concentration of 0.125 μg/mL, 10 μL/well of reduced glutathione at a final concentration of 1 mmol/L, and 10 μL/well of Compound (I) diluted with the enzyme assay buffer were added and lightly mixed. The plate was allowed to stand at room temperature for 10 minutes, and then 10 μL/well of prostaglandin H2(PGH2) (Cat. No. 17020, Cayman Chemical) at a final concentration of 50 μmol/L was added thereto to start enzyme reaction. The reaction was allowed to proceed with mixing by a plate mixer for 1 minute. After the enzyme reaction, 10 μL/well of a 4 mg/mL FeCl2-HCl solution prepared by dissolving FeCl2 in 1 mol/L hydrochloric acid was added to stop the reaction and reduce PGH2 simultaneously. The enzyme reaction solution (100 μL/well) was transferred to a 96-well UV-Star half area plate (Cat. No. 675801, Greiner, Frickenhausen, Germany), and measured for absorbance at 232 nm using a microplate reader Power Wave (BioTek Instrument Inc., Winooski, Vt., USA).
The H-PGDS inhibitory activity (inhibitory rate) of Compound (I) was calculated by the following formula.
The H-PGDS inhibitory activity of Compound 133 was calculated according to the following protocol attached to Prostaglandin D Synthase Inhibitor Screening Assay Kit (Cat. No. 10006595, Cayman Chemical, Ann Arbor, Mich., USA).
as §1, with “133” for “(I)”
The H-PGDS inhibitory activity (inhibitory rate) of Compound 133 was calculated according to the method in Test Example 1.

T1 sequence (O60760 whole entry): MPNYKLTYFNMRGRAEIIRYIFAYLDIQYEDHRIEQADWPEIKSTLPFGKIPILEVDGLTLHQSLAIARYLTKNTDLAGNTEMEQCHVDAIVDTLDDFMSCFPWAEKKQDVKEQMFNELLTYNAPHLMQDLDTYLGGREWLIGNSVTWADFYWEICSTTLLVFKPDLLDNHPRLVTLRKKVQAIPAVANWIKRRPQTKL

Compound	inhibition at 1 µM [%]
O=C(NS(=O)(=O)c1ccccc1)c1cccc(-c2cc(C(=O)O)c3c(ccc4nn(-c5ccccc5)nc43)n2)c1 [Compound 26, 7-(3-benzenesulfonylaminocarbonylphenyl)-2-phenyl-2H[1,2,3]triazolo[4,5-f]quinoline-9-carboxylic acid]	≥ 80
O=C(O)c1cc(-c2ccc(NS(=O)(=O)c3ccccc3)cc2)nc2ccc3nc(-c4ccccc4)oc3c12 [Compound 53, 7-(4-benzenesulfonylaminophenyl)-2-phenyloxazolo[5,4-f]-quinoline-9-carboxylic acid]	≥ 80
O=C(O)c1cc(-c2ccc(NS(=O)(=O)c3ccccc3)cc2)nc2ccc3nn(-c4ccccc4)nc3c12 [Compound 15, 7-(4-benzenesulfonylaminophenyl)-2-phenyl-2H[1,2,3]triazolo[4,5-f]quinoline-9-carboxylic acid]	≥ 80
Cc1cccc(-n2nc3ccc4nc(-c5ccco5)cc(C(=O)O)c4c3n2)c1 [Compound 102, 7-(furan-2-yl)-2-(3-methylphenyl)-2H-[1,2,3]triazolo[4,5-f]quinoline-9-carboxylic acid]	≥ 80
CS(=O)(=O)NC(=O)c1ccc(-c2cc(C(=O)O)c3c(ccc4nn(-c5ccccc5)nc43)n2)cc1 [Compound 13, 7-(4-methanesulfonylaminocarbonylphenyl)-2-phenyl-2H[1,2,3]triazolo[4,5-f]quinoline-9-carboxylic acid]	≥ 80

More lines, now with the values ahead:

inhibition at 1 µM [%]	Compound
≥ 80	CS(=O)(=O)Nc1ccc(-c2cc(C(=O)O)c3c(ccc4nn(-c5ccccc5)nc43)n2)cc1 [Compound 6, 7-(4-methanesulfonylaminophenyl)-2-phenyl-2H[1,2,3]triazolo[4,5-f]quinoline-9-carboxylic acid]
≥ 80	CS(=O)(=O)NC(=O)c1cccc(-c2cc(C(=O)O)c3c(ccc4nn(-c5ccccc5)nc43)n2)c1 [Compound 17, 7-(3-methanesulfonylaminocarbonylphenyl)-2-phenyl-2H[1,2,3]triazolo[4,5-f]quinoline-9-carboxylic acid]
≥ 80	O=C(NS(=O)(=O)c1ccccc1)c1ccc(-c2cc(C(=O)O)c3c(ccc4nn(-c5ccccc5)nc43)n2)cc1 [Compound 28, 7-(4-benzenesulfonylaminocarbonylphenyl)-2-phenyl-2H[1,2,3]triazolo[4,5-f]quinoline-9-carboxylic acid]
≥ 80	O=C(O)c1cc(-c2cnn(Cc3ccccc3)c2)nc2ccc3nn(-c4cccc(F)c4)nc3c12 [Compound 116, 7-(1-benzyl-1H-pyrazol-4-yl)-2-(3-fluorophenyl)-2H-[1,2,3]-triazolo[4,5-f]quinoline-9-carboxylic acid]
≥ 80	O=C(O)c1cc(-c2cc(C(=O)O)c3c(ccc4nn(-c5cccc(F)c5)nc43)n2)c[nH]1 [Compound 76, 7-(5-carboxy-1H-pyrrol-3-yl)-2-(3-fluorophenyl)-2H-[1,2,3]-triazolo[4,5-f]quinoline-9-carboxylic acid]

tested on: PGD2 production in mouse ear; assay: Inhibitory effect on PGD2 production in mouse ear caused by allergic reaction; type: in vivo; details: 3 mg/kg orally, 1 hour before inducing antigen-antibody reaction; BALB/c mice
Experimental: A test of PGD2 production in the mouse ear caused by allergic reaction was conducted according to the evaluation method of passive cutaneous anaphylaxis in the mouse ear by Inagaki et al. (Int.Arch.AllergyAppl. Immunol., 1988, 86 (3), 325-30) with some alteration. […]
One hour after the induction of antigen-antibody reaction, the mice were killed by cervical dislocation and the ears were cut off with scissors. […] The harvested pieces of ear tissue were immediately frozen in liquid nitrogen, and preserved at −80° C. until measurement of the quantity of PGD2.
The quantity of PGD2 was determined in the following manner. […]

Compound	inhibition of PGD2 production in mouse ear caused by allergic reaction [%]
Cc1cccc(-n2nc3ccc4nc(-c5ccco5)cc(C(=O)O)c4c3n2)c1 [Compound 102, 7-(furan-2-yl)-2-(3-methylphenyl)-2H-[1,2,3]triazolo[4,5-f]quinoline-9-carboxylic acid]	84
